Source: ChEMBL document CHEMBL1649565, “Besifloxacin, a novel fluoroquinolone, has broad-spectrum in vitro activity against aerobic and anaerobic bacteria” (Antimicrob Agents Chemother, 2009)
≈ marks a conversion by molar mass, not a printed value. Calls of active or inactive are those of the source. The calls are words filed in the database; no cut-off is given here.

Key:
[1] = tested on: Staphylococcus epidermidis
[2] = tested on: Staphylococcus epidermidis; remark: listed apart in the source
Acinetobacter baumannii [3] = test: Antibacterial activity against Acinetobacter baumannii by CLSI M7-A7 method; assay type: functional
[4] = tested on: Acinetobacter calcoaceticus; test: Antibacterial activity against Acinetobacter calcoaceticus by CLSI M7-A7 method; assay type: functional
Acinetobacter lwoffii [5] = test: Antibacterial activity against Acinetobacter lwoffii by CLSI M7-A7 method; assay type: functional
Citrobacter freundii [6] = test: Antibacterial activity against Citrobacter freundii by CLSI M7-A7 method; assay type: functional
Citrobacter koseri [7] = test: Antibacterial activity against Citrobacter koseri by CLSI M7-A7 method; assay type: functional
Klebsiella aerogenes [8] = test: Antibacterial activity against Enterobacter aerogenes by CLSI M7-A7 method; assay type: functional
Enterobacter cloacae [9] = test: Antibacterial activity against Enterobacter cloacae by CLSI M7-A7 method; assay type: functional
Klebsiella oxytoca [10] = test: Antibacterial activity against Klebsiella oxytoca by CLSI M7-A7 method; assay type: functional
Klebsiella pneumoniae [11] = test: Antibacterial activity against Klebsiella pneumoniae by CLSI M7-A7 method; assay type: functional
Morganella morganii [12] = test: Antibacterial activity against Morganella morganii by CLSI M7-A7 method; assay type: functional
Proteus mirabilis [13] = test: Antibacterial activity against Proteus mirabilis by CLSI M7-A7 method; assay type: functional
Proteus vulgaris [14] = test: Antibacterial activity against Proteus vulgaris by CLSI M7-A7 method; assay type: functional
Pseudomonas aeruginosa [15] = test: Antibacterial activity against ciprofloxacin-susceptible Pseudomonas aeruginosa by CLSI M7-A7 method; assay type: functional
Pseudomonas aeruginosa [16] = test: Antibacterial activity against non-ciprofloxacin-susceptible Pseudomonas aeruginosa by CLSI M7-A7 method; assay type: functional
Serratia marcescens [17] = test: Antibacterial activity against Serratia marcescens by CLSI M7-A7 method; assay type: functional
[18] = tested on: Stenotrophomonas maltophilia; test: Antibacterial activity against non-levofloxacin susceptible Stenotrophomonas maltophilia by CLSI M7-A7 method; assay type: functional
Acinetobacter baumannii [19] = test: Antibacterial activity against Acinetobacter baumannii assessed as percent susceptible isolates by CLSI M7-A7 method; assay type: functional
[20] = tested on: Acinetobacter calcoaceticus; test: Antibacterial activity against Acinetobacter calcoaceticus assessed as percent susceptible isolates by CLSI M7-A7 method; assay type: functional
Acinetobacter lwoffii [21] = test: Antibacterial activity against Acinetobacter lwoffii assessed as percent susceptible isolates by CLSI M7-A7 method; assay type: functional
Citrobacter freundii [22] = test: Antibacterial activity against Citrobacter freundii assessed as percent susceptible isolates by CLSI M7-A7 method; assay type: functional
Citrobacter koseri [23] = test: Antibacterial activity against Citrobacter koseri assessed as percent susceptible isolates by CLSI M7-A7 method; assay type: functional
Klebsiella aerogenes [24] = test: Antibacterial activity against Enterobacter aerogenes assessed as percent susceptible isolates by CLSI M7-A7 method; assay type: functional
Enterobacter cloacae [25] = test: Antibacterial activity against Enterobacter cloacae assessed as percent susceptible isolates by CLSI M7-A7 method; assay type: functional
Klebsiella oxytoca [26] = test: Antibacterial activity against Klebsiella oxytoca assessed as percent susceptible isolates by CLSI M7-A7 method; assay type: functional
Klebsiella pneumoniae [27] = test: Antibacterial activity against Klebsiella pneumoniae assessed as percent susceptible isolates by CLSI M7-A7 method; assay type: functional
Morganella morganii [28] = test: Antibacterial activity against Morganella morganii assessed as percent susceptible isolates by CLSI M7-A7 method; assay type: functional
Proteus mirabilis [29] = test: Antibacterial activity against Proteus mirabilis assessed as percent susceptible isolates by CLSI M7-A7 method; assay type: functional
Proteus vulgaris [30] = test: Antibacterial activity against Proteus vulgaris assessed as percent susceptible isolates by CLSI M7-A7 method; assay type: functional
Pseudomonas aeruginosa [31] = test: Antibacterial activity against ciprofloxacin-susceptible Pseudomonas aeruginosa assessed as percent susceptible isolates by CLSI M7-A7 method; assay type: functional
Pseudomonas aeruginosa [32] = test: Antibacterial activity against non-ciprofloxacin-susceptible Pseudomonas aeruginosa assessed as percent susceptible isolates by CLSI M7-A7 method; assay type: functional
Serratia marcescens [33] = test: Antibacterial activity against levofloxacin susceptible Serratia marcescens assessed as percent susceptible isolates by CLSI M7-A7 method; assay type: functional
[34] = tested on: Stenotrophomonas maltophilia; test: Antibacterial activity against non-levofloxacin susceptible Stenotrophomonas maltophilia assessed as percent susceptible isolates by CLSI M7-A7 method; assay type: functional
[35] = tested on: Stenotrophomonas maltophilia; test: Antibacterial activity against levofloxacin-susceptible Stenotrophomonas maltophilia by CLSI M7-A7 method; assay type: functional
[36] = tested on: Stenotrophomonas maltophilia; test: Antibacterial activity against levofloxacin-susceptible Stenotrophomonas maltophilia assessed as assessed as percent susceptible isolates by CLSI M7-A7 method; assay type: functional

COc1c(N2C[C@@H]3CCCN[C@@H]3C2)c(F)cc2c(=O)c(C(=O)O)cn(C3CC3)c12
MIC90 [1]: inactive | MIC90 [2]: inactive

O=C(O)c1cn(C2CC2)c2cc(N3CCNCC3)c(F)cc2c1=O
MIC90 [1]: inactive | MIC90 [2]: inactive

CC(C)(O/N=C(\C(=O)N[C@@H]1C(=O)N2C(C(=O)[O-])=C(C[n+]3ccccc3)CS[C@H]12)c1csc(N)n1)C(=O)O [CEFTAZIDIME]
MIC50 (Acinetobacter baumannii [3]): > 16 µg/mL | MIC90 (Acinetobacter baumannii [3]): > 16 µg/mL | MIC50 [4]: 4 µg/mL (≈ 7.32 µM) | MIC90 [4]: > 16 µg/mL | MIC50 (Acinetobacter lwoffii [5]): 2 µg/mL (≈ 3.66 µM) | MIC90 (Acinetobacter lwoffii [5]): > 16 µg/mL | MIC50 (Citrobacter freundii [6]): 0.25 µg/mL (≈ 0.457 µM) | MIC90 (Citrobacter freundii [6]): > 16 µg/mL | MIC50 (Citrobacter koseri [7]): 0.12 µg/mL (≈ 0.22 µM) | MIC90 (Citrobacter koseri [7]): 0.5 µg/mL (≈ 0.915 µM) | MIC50 (Klebsiella aerogenes [8]): 2 µg/mL (≈ 3.66 µM) | MIC90 (Klebsiella aerogenes [8]): > 16 µg/mL | MIC50 (Enterobacter cloacae [9]): 0.5 µg/mL (≈ 0.915 µM) | MIC90 (Enterobacter cloacae [9]): > 16 µg/mL | MIC50 (Klebsiella oxytoca [10]): 0.12 µg/mL (≈ 0.22 µM) | MIC90 (Klebsiella oxytoca [10]): 0.5 µg/mL (≈ 0.915 µM) | MIC50 (Klebsiella pneumoniae [11]): 0.12 µg/mL (≈ 0.22 µM) | MIC90 (Klebsiella pneumoniae [11]): 1 µg/mL (≈ 1.83 µM) | MIC50 (Morganella morganii [12]): 0.12 µg/mL (≈ 0.22 µM) | MIC90 (Morganella morganii [12]): 16 µg/mL (≈ 29.3 µM) | MIC (Proteus mirabilis [13]): ≤ 0.03 µg/mL | MIC50 (Proteus mirabilis [13]): ≤ 0.03 µg/mL | MIC90 (Proteus mirabilis [13]): 0.06 µg/mL (≈ 0.11 µM) | MIC50 (Proteus vulgaris [14]): 0.06 µg/mL (≈ 0.11 µM) | MIC90 (Proteus vulgaris [14]): 0.12 µg/mL (≈ 0.22 µM) | MIC50 (Pseudomonas aeruginosa [15]): 2 µg/mL (≈ 3.66 µM) | MIC90 (Pseudomonas aeruginosa [15]): 8 µg/mL (≈ 14.6 µM) | MIC50 (Pseudomonas aeruginosa [16]): 4 µg/mL (≈ 7.32 µM) | MIC90 (Pseudomonas aeruginosa [16]): > 16 µg/mL | MIC50 (Serratia marcescens [17]): 0.06 µg/mL (≈ 0.11 µM) | MIC90 (Serratia marcescens [17]): 0.5 µg/mL (≈ 0.915 µM) | MIC [18]: 0.5 µg/mL (≈ 0.915 µM) | Activity (Acinetobacter baumannii [19]): 39.6% | Activity [20]: 63% | Activity (Acinetobacter lwoffii [21]): 76% | Activity (Citrobacter freundii [22]): 78% | Activity (Citrobacter koseri [23]): 100% | Activity (Klebsiella aerogenes [24]): 62% | Activity (Enterobacter cloacae [25]): 70% | Activity (Klebsiella oxytoca [26]): 100% | Activity (Klebsiella pneumoniae [27]): 92% | Activity (Morganella morganii [28]): 82.4% | Activity (Proteus mirabilis [29]): 98% | Activity (Proteus vulgaris [30]): 100% | Activity (Pseudomonas aeruginosa [31]): 93.3% | Activity (Pseudomonas aeruginosa [32]): 57.3% | Activity (Serratia marcescens [33]): 93% | Activity [34]: 43.8% | MIC [35]: 0.5 µg/mL (≈ 0.915 µM) | Activity [36]: 32.7%
